In data set [1] the test system is hepatocytes isolated and cultured from obese Zucker (fa/fa) rats. As to the kind of experiment: Inhibition of glucose output from hepatocytes isolated and cultured from obese Zucker (fa/fa) rats. It counts as cell-based, rat. Conditions: inhibition of glucose output compared to glucagon stimulated cells. The protocol: Inhibition of Glucose Output from Hepatocytes Isolated and Cultured from Obese Zucker (fa/fa) Rats and Their Lean Controls
Culturing of Hepatocytes: Isolated hepatocytes were plated on 12 well rat-tail collagen coated plates at a cell density of 5×10(5) cells/ml (approximately 1 ml of cell suspension per well). Following a one hour attachment period in which plates were incubated in a CO2 incubator at 37 deg C. (95% O2, 5% CO2), the supernatant containing unattached hepatocytes was removed and replaced with fresh media (1 ml/well) containing 1 μM dexamethasone and 100 pM insulin. Cells were maintained at 37 deg C. for 48 hours in a 95% O2, 5% CO2 environment. At the end of the first 24 hours, the media was aspirated off of the wells and replaced with fresh media containing the same concentrations of dexamethasone and insulin as described earlier. Treatment with Drugs and Assessment of Glucose Output: Drugs were routinely added with fresh media 24 hours after the initial attachment period. Eighteen hours later, media was aspirated and 500 μl of fresh Hank's buffer, Buffer D (glucose-free) supplemented with hormones, gluconeogenic substrates and drug(s) was added to each well and incubated for 4 hours. At the end of the 4 hour incubation, media from each well was removed and assayed for glucose content using the hexokinase/glucose-6-phosphate dehydrogenase coupled assay on the Boehringer Mannheim model 911 auto analyzer. Glucose concentration was expressed as μg/ml. Three of the plates from each treated group were frozen for subsequent determination of protein content. Two plates from each treatment group were used to assess the cytotoxicity of drug(s) and other agents as determined by the MTT (tetrazolium) dye reduction method (see below).
Protein test procedure: Three plates with no insulin treatment and three plates with 10^−8 M insulin treatment were used for protein determination. After supernatant has been removed for determination of glucose output the plates were frozen and stored at −20 deg C. until ready to assay for protein content. Prior to determination of protein the plates were defrosted at room temperature for 15 minutes. An aliquot of 1 ml 0.1 N NaOH was added to each well. Plates were incubated at 4 deg C. overnight. Solutions for measurement of protein content were mixed by pipetting the NaOH solution up and down several time with a 1 ml pipette and then transferring to a small polyethylene tube. Protein determination was based on that of the Pierce BCA protein assay protocol (Pierce cat. no. 23223). A set of protein standards (0.2, 0.4, 0.6, 0.8, and 1 mg/ml BSA) was prepared by serial dilution of 1 mg/ml bovine serum albumin with 0.1 N NaOH, and 40 μl of each standard, or control blank was pipetted into a 96-well plate in duplicate. Each unknown protein sample (40 μl) was tested in triplicate. An aliquot of 200 μl of BCA protein assay reagent (consisting of 50 parts Reagent A with 1 part Reagent B) was added to each well. Samples were mixed with a Titertek pipette. The microtiter plate was covered with sealing tape and incubated at room temperature for 1 hour. After incubation, the sealing tape was removed and absorbance measured on a plate reader (Uvmax kinetic microplate reader, Molecular Devices) at 570 nm. A standard curve was prepared by plotting the blank-corrected absorbance against known protein concentrations, and protein concentrations were then determined for each unknown.
Measurements and Calculations: Glucose output was calculated as μg glucose/mg protein/hour, and inhibition of glucose output was calculated as percent inhibition of glucose output when compared to glucagon stimulated cells. Cytotoxicity was determined using the MTT dye reduction assay and data were expressed as percent inhibition of MTT dye reduction compared to control cells. […]

Data set [2] concerns diabetic ob/ob mice. As to the kind of experiment: Hypoglycemic effect in diabetic ob/ob mice. It counts as in vivo, mouse. The protocol:
Hypoglycemic Effect in Diabetic OB/OB Mice
Procedure: In each study, male or female ob/ob (C57 B1/6J) mice and their mean litermates (ob/+ or +/+, Jackson Laboratories) ages 2 to 5 months (10 to 65 g) were randomized according to plasma glucose into 4 groups of 10 mice. The mice were housed 5 per cage and were maintained on normal rodent chow with water ad libitum. Mice receive compound daily by gavage (suspended in 0.5 ml of 0.5% methyl cellulose); dissolved in the drinking water; or admixed in the diet. The dose of compounds given ranges from 2.5 to 200 mg/kg body weight/day. Body weight of fed animals was measured at the beginning of each week and doses for the entire week were calculated using this weight and were expressed in terms of the active moiety of the compound. Control mice receive vehicle only. […]
Measurements: The plasma was isolated by centrifugation and the concentration of glucose was measured enzymatically on an Abbott V. P. Analyzer and the plasma concentration of insulin was determined by radioimmunoassay (Heding, 1972)
Analysis of variance followed by Dunnett's Comparison Test (one-tailed) was used to estimate the significant difference between the plasma glucose values from the control group and the individual compound treated groups (CMS SAS Release 5.18). A compound will be considered active if the difference has a p<0.05.

Data set [3] has as its system diabetic ob/ob mice. Conditions: reference compound, 20 mg/kg/day; cited from earlier work.

The compound `O=S(=O)(Nc1ccc2c(OCc3ccc(-c4ccc(C(F)(F)F)cc4)cc3F)cccc2c1)C(F)(F)F` [Example 5, C,C,C-Trifluoro-N-[5-(3-fluoro-4′-trifluoromethyl-biphenyl-4-ylmethoxy)-naphthalen-2-yl]-methanesulfonamide] gave a melting point of 98 to 100 °C. The compound also yielded an IC50 in data set [1] (Rattus norvegicus, Hepatocyte) of 6.3 µM.
Take `O=S(=O)(Nc1ccc2c(OCc3cccc(OCc4ccc(-c5ccc6ccccc6c5)cc4)c3)cccc2c1)C(F)(F)F` [Example 14, N-[5-(4-naphthalen-2-yl-benzyloxy-3-ylmethoxy)-naphthalen-2-yl]-C,C,C-trifluoro-methanesulfonamide]: in data set [1], the IC50 is 10.4 µM.
As for `O=S(=O)(Nc1ccc2c(OCc3cccc(-c4ccccc4)c3)cccc2c1)C(F)(F)F` [Example 27], the IC50 in data set [1] turned out to be 7 µM. Further, the “REDUCTION IN PLASMA GLUCOSE Day 3 (6 hr) p.o.” value in data set [2] (10 mg/kg) is given as −31% (10 mg/kg).
For the compound `O=S(=O)(Nc1ccc2c(OCc3ccc(-c4ccc(Cl)c(Cl)c4)cc3Cl)cccc2c1)C(F)(F)F` [Example 30, C,C,C-Trifluoro-N-[5-(3,3′,4′-trichloro-biphenyl-4-ylmethoxy)-naphthalen-2-yl]-methanesulfonamide], the melting point was 169 to 170 °C. In data set [1] (Rattus norvegicus, Hepatocyte), this compound displayed an IC50 of 3.1 µM. Moreover, in data set [2] (25 mg/kg), the “REDUCTION IN PLASMA GLUCOSE Day 1 (6 hr) p.o.” value was −6% (25 mg/kg) and the “REDUCTION IN PLASMA GLUCOSE Day 3 (6 hr) p.o.” value was −11% (25 mg/kg).
Compound `O=S(=O)(Nc1ccc2c(OCc3ccc(-c4ccc(Cl)cc4)cc3Cl)cccc2c1)C(F)(F)F` [Example 31, N-[5-(3,4′-Dichloro-biphenyl-4-ylmethoxy)-naphthalen-2-yl]-C,C,C-trifluoro-methanesulfonamide] had a melting point of 176 to 178 °C. Also, the concentration for half-maximal inhibition (IC50) in data set [1] (Rattus norvegicus, Hepatocyte) worked out at 2.6 µM. Besides, in data set [2] (5 mg/kg), the “REDUCTION IN PLASMA GLUCOSE Day 1 (6 hr) p.o.” value was −23% (5 mg/kg) and the “REDUCTION IN PLASMA GLUCOSE Day 3 (6 hr) p.o.” value was −22% (5 mg/kg).
As for `O=S(=O)(Nc1ccc2c(OCc3csc(-c4ccc(F)cc4F)n3)cccc2c1)C(F)(F)F` [Example 46, N-{5-[2-(2,4-Difluoro-phenyl)-thiazol-4-ylmethoxy]-naphthalen-2-yl}-C,C,C-trifluoro-methanesulfonamide], the melting point lay in the range of 191 to 192 °C. This compound also displayed an IC50 in data set [1] (Rattus norvegicus, Hepatocyte) of 2.8 µM.
For the compound `O=S(=O)(Nc1ccc2c(OCc3csc(-c4ccc(C(F)(F)F)cn4)n3)cccc2c1)C(F)(F)F` [Example 52, C,C,C-Trifluoro-N-{5-[2-(5-trifluoromethyl-pyridin-2-yl)-thiazol-4-yl-methoxy]naphthalen-2-yl}-methanesulfonamide], the melting point was 197 to 198 °C. This compound also gave an IC50 in data set [1] (Rattus norvegicus, Hepatocyte) of 12 µM.
The matching figures for `COc1ccc(-c2nc(COc3cccc4cc(NS(=O)(=O)C(F)(F)F)ccc34)cs2)cc1` [Example 53, C,C,C-Trifluoro-N-{5-[2-(4-methoxy-phenyl)-thiazol-4-ylmethoxy]-naphthalen-2-yl}-methanesulfonamide]: 151 to 152 °C and 9.5 µM.
In turn, `O=S(=O)(Nc1ccc2c(OCc3csc(-c4ccc(C(F)(F)F)cc4)n3)cccc2c1)C(F)(F)F` [Example 57, N-{5-[2-(4-trufluoromethyl-phenyl)-thiazol-4-ylmethoxy]-naphthalen-2-yl}-C,C,C-trifluoro-methanesulfonamide] registered an IC50 in data set [1] of 1.5 µM. Besides, the “REDUCTION IN PLASMA GLUCOSE Day 3 (6 hr) p.o.” value in data set [2] (10 mg/kg) is −33% (10 mg/kg).
For sodium metavanadate, the “lowering in plasma glucose” value in data set [3] was “significant lowering in plasma glucose”.

Broadly, the IC50 is the concentration that gives 50% inhibition. Read a high IC50 as lower potency. What is called melting point is the temperature of the solid-liquid transition.

These data come from patent publication US6933322B2, “Substituted naphthylenes for the treatment of non-insulin dependent diabetes mellitus” (Wyeth, priority 2002, dated 2005).
